In brackets after ≈: the same amount, converted by molar mass. Read-outs that look alike come from different tables or passages of the source.
Experiments:
[1] = system: MRSA-4; experiment: MIC, broth microdilution (CLSI); format: cell-based, Methicillin-resistant S. aureus; details: Staphylococcus aureus
Excerpt: (§1) Staphylococcus aureus ATCC25923 and Escherichia coli ATCC25922 were obtained from the American Type Culture Collection (ATCC, Manassas, VA, USA). The Methicillin-resistant S. aureus (MRSA) clinical isolate MRSA-4, previously confirmed as mecA-positive and characterized for its antibiotic resistance profile ([Sun et al., 2023]), was used in this study. Staphylococcus epidermidis (GDMCC 1.143), Enterococcus faecalis (GDMCC 1.164), and Salmonella enterica subsp. enterica (GDMCC 1.1114) were obtained from the Guangdong Microbial Culture Collection Center (GDMCC, Guangzhou, China). The Pseudomonas aeruginosa PA14 strain was kindly provided by Professor Min Wu (Southwest Medical University, China). All bacterial strains were routinely cultured in Mueller-Hinton broth (MHB) or Luria-Bertani (LB) broth medium at 37°C with shaking at 200 rpm. Vancomycin was purchased from Solarbio Science & Technology Co., Ltd. (Beijing, China), and oxacillin was obtained from Taiji Group Hengsheng Pharmaceutical Co., Ltd. (Chengdu, China). The polyclonal rabbit primary anti-body to FtsZ was purchased from Abcam PLC (Cambridge, UK). Alexa488-conjugated goat anti-rabbit IgG was purchased from ZSGB-BIO Biotechnology (Beijing, China). DAPI staining solution was purchased from Beyotime Biotechnology (Shanghai, China).
(§2) The minimum inhibitory concentrations (MICs) of the test compounds (AA, MA, and UA) were determined using the standard broth microdilution method in accordance with the Clinical and Laboratory Standards Institute (CLSI) guidelines ([Humphries et al., 2021]). Bacteria were cultured in MHB or LB broth at 37°C with shaking (200 rpm) to the logarithmic phase, then diluted to a final density of 1 × 10^6 CFU/mL. Test compounds (dissolved in DMSO) and positive controls (vancomycin and oxacillin) were diluted in MHB and serially twofold diluted in 96-well plates. Each well was inoculated with 100 μL of bacterial suspension (1 × 10^6 CFU/mL), yielding a final bacterial density of 5 × 10^5 CFU/mL and a total volume of 200 μL. The final concentrations tested were 128 to 1 μg/mL for AA, MA, and UA; 16 to 0.5 μg/mL for vancomycin; and 64 to 0.0625 μg/mL for oxacillin. DMSO was used as a solvent control. Plates were incubated statically at 37°C for 18–24 h. After incubation, the OD600 was measured using a microplate reader (SpectraMax i3x, Molecular Devices, CA, USA). The MIC was defined as the lowest compound concentration that caused ≥ 90% inhibition of bacterial growth compared to the drug-free growth control. All tests were performed in three independent biological replicates.
(§3) Following the isolation and identification of AA, MA, and UA from ECPL, we evaluated their antibacterial activity and spectrum. The MICs of the compounds were determined against MRSA-4, S. aureus ATCC25923, S. epidermidis, and E. faecalis (Gram-positive), as well as P. aeruginosa PA14, E. coli ATCC25922, and S. enterica subsp. Enterica (Gram-negative) using the standard broth microdilution method in accordance with CLSI guidelines ([Humphries et al., 2021]).

[2] = system: S. enterica subsp. Enterica (1.1114); experiment: MIC, broth microdilution (CLSI); format: cell-based, Salmonella enterica subsp. enterica; details: Salmonella enterica
Excerpt: as §1, §2, §3

[3] = system: E. faecalis; experiment: MIC, broth microdilution (CLSI); format: cell-based; details: Enterococcus faecalis
Excerpt: as §1, §2, §3

[4] = system: E. coli ATCC25922; experiment: MIC, broth microdilution (CLSI); format: cell-based; details: Escherichia coli
Excerpt: as §1, §2, §3

[5] = system: S. aureus ATCC25923; experiment: MIC, broth microdilution (CLSI); format: cell-based; details: Staphylococcus aureus
Excerpt: as §1, §2, §3

[6] = system: P. aeruginosa PA14; experiment: MIC, broth microdilution (CLSI); format: cell-based; details: Pseudomonas aeruginosa
Excerpt: as §1, §2, §3

[7] = system: S. epidermidis (1.143); experiment: MIC, broth microdilution (CLSI); format: cell-based; details: Staphylococcus epidermidis
Excerpt: as §1, §2, §3

[8] = system: MRSA-4; experiment: SEM analysis, cell long axis; format: cell-based, Methicillin-resistant S. aureus; details: 2 × MIC, 2 h, mean ± SD, PBS control 0.53 ± 0.04
Description: (§4) Scanning electron microscopy (SEM) was used to observe the morphological changes in bacterial cells treated with the isolated compounds. S. aureus ATCC 25923 and MRSA-4 were grown in MHB to mid-log phase (OD600 = 0.4–0.6) as previously described. The bacteria cultures were treated with AA, MA, or UA at 2 × MIC for 2 h at 37°C with shaking at 150 rpm. Untreated cultures (PBS group) served as the growth control. After incubation, bacterial cells were harvested by centrifugation and washed three times with PBS (pH 7.2). Coverslips (8 mm diameter) were cleaned with absolute ethanol under ultrasonication, air-dried, immersed in 0.1% (w/v) chitosan solution (dissolved in 1% acetic acid) for 5 s, and air-dried again at room temperature ([Su et al., 2022]). A 25 μL aliquot of the washed bacterial suspension was added to each coverslip and allowed to adhere for 1 h at room temperature. Adhered cells were fixed with 1 mL of 2.5% (v/v) glutaraldehyde at 4°C overnight. Fixed samples were rinsed 2–3 times with PBS (5 min per rinse), then dehydrated through a graded ethanol series: 50, 70, and 90% ethanol (each once for 5 min), followed by 100% ethanol (three times for 5 min each). After dehydration, samples were air-dried overnight at room temperature. SEM imaging was performed using an EVO 10 scanning electron microscope (Zeiss, Jena, Germany). Cell long-axis statistical analysis was conducted using ImageJ software (Version 1.42q, National Institutes of Health, MD, USA).
(§5) Having established the antibacterial activity of AA, MA, and UA, we next examined their effects on bacterial morphology. We employed SEM to examine the alterations induced by these compounds in S. aureus ATCC25923 and MRSA-4. Bacterial cultures were treated with AA, MA, or UA at 2 × MIC for 2 h, while untreated (PBS group) cultures served as negative controls. […] In PBS groups, both S. aureus ATCC25923 and MRSA-4 maintained typical spherical morphology with smooth and intact surfaces.

[9] = system: S. aureus ATCC25923; experiment: SEM analysis, cell long axis; format: cell-based, Staphylococcus aureus; details: 2 × MIC, 2 h, mean ± SD, PBS control 0.52 ± 0.05
Description: as §4, §5

[10] = system: MRSA-4; experiment: Time-dependent killing assay; format: cell-based, Methicillin-resistant S. aureus; details: 2 × MIC
Description: An overnight culture of MRSA-4 was diluted 1:100 in fresh MHB and incubated at 37°C with shaking (200 rpm) until reaching mid-log phase (OD600 = 0.4–0.6). The culture was then adjusted to 1 × 10^6 CFU/mL and treated with AA, MA, or UA at concentrations of 1×, 2×, and 4 × MIC. 2 × MIC of vancomycin was used as a positive control, and an equivalent volume of DMSO served as the negative control. The cultures were incubated at 37°C with shaking (200 rpm) during the assay. At designated time points (0, 1, 2, 4, 8, and 24 h), samples were collected, serially diluted tenfold in sterile PBS, and 100 μL of appropriate dilutions were plated on LB agar. Plates were incubated at 37°C for 18–24 h, and viable bacteria were quantified. All experiments were performed in biological triplicates.
We next performed time-kill kinetics assays to characterize the time-dependent antibacterial effects of AA, MA, and UA against MRSA-4. Bacterial cultures were exposed to AA, MA, and UA at 1×, 2×, and 4 × their respective MICs, and viable CFU were counted at designated time points (0, 1, 2, 4, 8, and 24 h). As shown in the time-kill curves (Figure 1), treatment with 1 × or 2 × MIC of AA, MA, or UA led to an initial reduction in bacterial load within the first 2 h.

| Structure (SMILES) | MIC ([1]; MRSA-4, ≥ 90% growth inhibition, 18–24 h, read-out: MIC) | MIC ([2]; S. enterica subsp. Enterica (1.1114), ≥ 90% growth inhibition, 18–24 h, read-out: MIC) | MIC ([3]; E. faecalis, ≥ 90% growth inhibition, 18–24 h, read-out: MIC) | MIC ([4]; E. coli ATCC25922, ≥ 90% growth inhibition, 18–24 h, read-out: MIC) | MIC ([5]; S. aureus ATCC25923, ≥ 90% growth inhibition, 18–24 h, read-out: MIC) | MIC ([6]; P. aeruginosa PA14, ≥ 90% growth inhibition, 18–24 h, read-out: MIC) | MIC ([7]; S. epidermidis (1.143), ≥ 90% growth inhibition, 18–24 h, read-out: MIC) | length of long axis of cells [8] | length of long axis of cells [9] | MIC ([1]; MRSA) | time to reduce bacterial counts below the detection limit [10] | MIC [2] | MIC [3] | MIC ([4]; ATCC25922) | MIC ([5]; ATCC25923) | MIC ([6]; PA14) | MIC [7] |
| --- | --- | --- | --- | --- | --- | --- | --- | --- | --- | --- | --- | --- | --- | --- | --- | --- | --- |
| Cc1onc(-c2ccccc2)c1C(=O)N[C@@H]1C(=O)N2[C@@H]1SC(C)(C)[C@@H]2C(=O)O [Oxa, Oxacillin, reference compound] | 64 µg/mL (≈ 159 µM) | > 64 µg/mL | 8 µg/mL (≈ 19.9 µM) | > 64 µg/mL | 0.125 µg/mL (≈ 0.311 µM) | > 64 µg/mL | 0.25 µg/mL (≈ 0.623 µM) | – | – | – | – | – | – | – | – | – | – |
| CN[C@H](CC(C)C)C(=O)N[C@H]1C(=O)N[C@@H](CC(N)=O)C(=O)N[C@H]2C(=O)N[C@H]3C(=O)N[C@H](C(=O)N[C@H](C(=O)O)c4cc(O)cc(O)c4-c4cc3ccc4O)[C@H](O)c3ccc(c(Cl)c3)Oc3cc2cc(c3O[C@@H]2O[C@H](CO)[C@@H](O)[C@H](O)[C@H]2O[C@H]2C[C@](C)(N)[C@H](O)[C@H](C)O2)Oc2ccc(cc2Cl)[C@H]1O [Van, Vancomycin, reference compound] | – | – | – | – | – | – | – | 0.57 ± 0.06 μm | 0.61 ± 0.06 μm | 2 µg/mL (≈ 1.38 µM) | ≤ 8 h | > 16 µg/mL | 1 µg/mL (≈ 0.69 µM) | > 16 µg/mL | 2 µg/mL (≈ 1.38 µM) | > 16 µg/mL | 2 µg/mL (≈ 1.38 µM) |

From article PMC12213745, “Compounds from Cyclocarya paliurus leaves inhibit binary division of methicillin-resistant Staphylococcus aureus by disrupting FtsZ dynamic” (Frontiers in Microbiology, 2025)
